The molecules below were run against T1, human TGR5 (Homo sapiens, UniProt Q8TDU6) (assay: Cell-based TGR5 assay (cAMP generation, HTRF)). Settings: HEK293 cells stably transfected with human TGR5; cAMP by HTRF; 30 minutes at 37° C.; read-out: pEC50 Human TGR5 (converted).
T1 construct: expressed in transfected cells; host or cells: HEK293
T1 sequence (Q8TDU6 1-330): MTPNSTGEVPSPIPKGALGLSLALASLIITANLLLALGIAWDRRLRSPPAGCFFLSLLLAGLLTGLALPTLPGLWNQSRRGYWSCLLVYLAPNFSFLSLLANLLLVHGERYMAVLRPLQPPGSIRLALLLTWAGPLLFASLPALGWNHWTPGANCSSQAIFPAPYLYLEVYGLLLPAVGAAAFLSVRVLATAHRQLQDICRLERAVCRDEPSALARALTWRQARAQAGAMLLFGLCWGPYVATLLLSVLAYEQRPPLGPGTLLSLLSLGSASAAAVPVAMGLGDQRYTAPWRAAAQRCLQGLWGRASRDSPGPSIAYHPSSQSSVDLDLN
Outline: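 Read-out was HTRF detection of cAMP, converted to concentration via a standard curve and fitted (3-parameter logistic) for pEC50 and maximal response. Agonist stimulation used HEK293 cells stably transfected with human TGR5, incubated 30 min at 37° C in IBMX-containing buffer at 0.05 nM to 10 μM compound.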

Row | SMILES | EC50 [nM]
1 | CN(CCCCc1cc(Cl)c(COC2(c3cnccc3-c3ccccc3OC3CC3)CC2)cc1Cl)C(=O)CN(CCN(CC(=O)O)CC(=O)N(C)CCCCc1cc(Cl)c(COC2(c3cnccc3-c3ccccc3OC3CC3)CC2)cc1Cl)CC(=O)O [Compound I-188, 2-({2-[(carboxymethyl)[({4-[2,5-dichloro-4-({1-[4-(2-cyclopropoxyphenyl)pyridin-3-yl]cyclopropoxy}methyl)phenyl]butyl}(methyl)carbamoyl)methyl]amino]ethyl}[({4-[2,5-dichloro-4-({1-[4-(2-cyclopropoxyphenyl)pyridin-3-yl]cyclopropoxy}methyl)phenyl]butyl}(methyl)carbamoyl)methyl]amino)acetic acid] | 126 to 1000
2 | CC(CCCN(CCN1CCS(=O)(=O)CC1)C(=O)[C@@H](O)[C@@H](O)[C@H](O)[C@@H](O)CO)c1ccc(Cl)c(CNC2(c3cnccc3-c3ccccc3OC3CC3)CC2)c1 (stereo partly drawn) [Compound I-298, (2S,3S,4R,5S)-N-(4-{4-chloro-3-[({1-[4-(2-cyclopropoxyphenyl)pyridin-3-yl]cyclopropyl}amino)methyl]phenyl}pentyl)-N-[2-(1,1-dioxo-1λ^6,4-thiomorpholin-4-yl)ethyl]-2,3,4,5,6-pentahydroxyhexanamide] | < 100
3 | O=C(NCCCC[C@H](NS(=O)(=O)c1ccc(Cl)c(COC2(c3cnccc3-c3ccccc3OC3CC3)CC2)c1)C(=O)O)NC[C@H](O)[C@@H](O)[C@H](O)[C@H](O)CO [Compound I-483, (2S)-2-[4-chloro-3-({1-[4-(2-cyclopropoxyphenyl)pyridin-3-yl]cyclopropoxy}methyl)benzenesulfonamido]-6-({[(2S,3R,4R,5R)-2,3,4,5,6-pentahydroxyhexyl]carbamoyl}amino)hexanoic acid] | 126 to 1000
4 | O=C(O)[C@@H](O)[C@@H](O)[C@H](O)[C@@H](O)CNC1CCN(C(=O)CCCCc2cc(Cl)c(COC3(c4cnccc4-c4ccccc4OC4CC4)CC3)cc2Cl)CC1 (stereo in doubt) [Compound I-173, (2S,3S,4R,5S)-6-[(1-{5-[2,5-dichloro-4-({1-[4-(2-cyclopropoxyphenyl)pyridin-3-yl]cyclopropoxy}methyl)phenyl]pentanoyl}piperidin-4-yl)amino]-2,3,4,5-tetrahydroxyhexanoic acid] | < 100
5 | C=C(CCCNC(=O)NC[C@H](O)[C@@H](O)[C@H](O)[C@H](O)CO)c1ccc(Cl)c(CNC2(c3cnccc3-c3ccccc3OC3CC3)CC2)c1 [Compound I-383, 1-(4-{4-chloro-3-[({1-[4-(2-cyclopropoxyphenyl)pyridin-3-yl]cyclopropyl}amino)methyl]phenyl}pent-4-en-1-yl)-3-[(2S,3R,4R,5R)-2,3,4,5,6-pentahydroxyhexyl]urea] | < 100
6 | O=C(NCCOCCS(=O)(=O)c1ccc(Cl)c(COC2(c3cnccc3-c3ccccc3OC3CC3)CC2)c1)N[C@@H](CO)[C@@H](O)[C@H](O)[C@H](O)CO [Compound I-641, 1-(2-{2-[4-chloro-3-({1-[4-(2-cyclopropoxyphenyl)pyridin-3-yl]cyclopropoxy}methyl)benzenesulfonyl]ethoxy}ethyl)-3-[(2S,3R,4S,5R)-1,3,4,5,6-pentahydroxyhexan-2-yl]urea] | < 100
7 | Cc1ccc(C(C)CCCNC(=O)NC[C@H](O)[C@@H](O)[C@H](O)[C@H](O)CO)cc1CNC1(c2cnccc2-c2ccccc2OC2CC2)CC1 (stereo partly drawn) [Compound I-271, 1-(4-{3-[({l-[4-(2-cyclopropoxyphenyl)pyridin-3-yl]cyclopropyl}amino)methyl]-4-methylphenyl}pentyl)-3-[(2S,3R,4R,5R)-2,3,4,5,6-pentahydroxyhexyl]urea] | < 100
8 | NC(=O)CN(CCCCc1cc(Cl)c(COC2(c3cnccc3-c3ccccc3OC3CC3)CC2)cc1Cl)C(=O)[C@@H](O)[C@@H](O)[C@H](O)[C@@H](O)CO [Compound I-82, (2S,3S,4R,5S)-N-(carbamoylmethyl)-N-{4-[2,5-dichloro-4-({1-[4-(2-cyclopropoxyphenyl)pyridin-3-yl]cyclopropoxy}methyl)phenyl]butyl}-2,3,4,5,6-pentahydroxyhexanamide] | < 100
9 | CC(CCCN(CC1CCOCC1)C(=O)[C@@H](O)[C@@H](O)[C@H](O)[C@@H](O)CO)c1ccc(Cl)c(CNC2(c3cnccc3-c3ccccc3OC3CC3)CC2)c1 (stereo partly drawn) [Compound I-287, (2S,3S,4R,5S)-N-(4-{4-chloro-3-[({1-[4-(2-cyclopropoxyphenyl)pyridin-3-yl]cyclopropyl}amino)methyl]phenyl}pentyl)-2,3,4,5,6-pentahydroxy-N-(oxan-4-ylmethyl)hexanamide] | < 100
10 | Cc1cc(COC2(c3cnccc3-c3ccccc3OC3CC3)CC2)c(Cl)cc1CCCCNC(=O)NC[C@@H]1O[C@H](CO)[C@@H](O)[C@H](O)[C@H]1O [Compound I-109, 3-{4-[5-chloro-4-({1-[4-(2-cyclopropoxyphenyl)pyridin-3-yl]cyclopropoxy}methyl)-2-methylphenyl]butyl}-1-{[(2S,3R,4R,5S,6R)-3,4,5-trihydroxy-6-(hydroxymethyl)oxan-2-yl]methyl}urea] | < 100
11 | Cc1ccc([C@H](C)CCCC(=O)N(CCS(C)(=O)=O)C[C@H](O)[C@@H](O)[C@H](O)[C@H](O)CO)cc1CNC1(c2cnccc2-c2ccccc2OC2CC2)CC1 (single isomer, unassigned) [Compound I-368] | < 100
12 | CN(C[C@H](O)[C@@H](O)[C@H](O)[C@H](O)CO)C(=O)CCCS(=O)(=O)c1ccc(Cl)c(CNC2(c3cnccc3-c3ccccc3OC3CC3)CC2)c1 [Compound I-646, 4-{4-chloro-3-[({1-[4-(2-cyclopropoxyphenyl)pyridin-3-yl]cyclopropyl}amino)methyl]benzenesulfonyl}-N-methyl-N-[(2S,3R,4R,5R)-2,3,4,5,6-pentahydroxyhexyl]butanamide] | < 100

Now from value to molecule:

Row | EC50 [nM] | SMILES
13 | < 100 | CC(CCCCNC(=O)[C@@H](O)[C@@H](O)[C@H](O)[C@@H](O)CO)c1ccc(Cl)c(COC2(c3cnccc3-c3ccccc3OC3CC3)CC2)c1 (stereo partly drawn) [Compound I-308, (2S,3S,4R,5S)-N-{5-[4-chloro-3-({1-[4-(2-cyclopropoxyphenyl)pyridin-3-yl]cyclopropoxy}methyl)phenyl]hexyl}-2,3,4,5,6-pentahydroxyhexanamide]
14 | < 100 | CS(=O)(=O)CCN(CCCCSc1ccc(Cl)c(CNC2(c3cnccc3-c3ccccc3OC3CC3)CC2)c1)C(=O)[C@@H](O)[C@@H](O)[C@H](O)[C@@H](O)CO [Compound I-584, (2S,3S,4R,5S)-N-[4-({4-chloro-3-[({-[4-(2-cyclopropoxyphenyl)pyridin-3-yl]cyclopropyl}amino)methyl]phenyl}sulfanyl)butyl]-2,3,4,5,6-pentahydroxy-N-(2-methanesulfonylethyl) hexanamide]
15 | 126 to 1000 | CCc1ccc(SCCCC(=O)N(C)C[C@H](O)[C@@H](O)[C@H](O)[C@H](O)CO)cc1COC1(c2cnccc2-c2ccccc2OC2CC2)CC1 [Compound I-691, 4-{[3-({1-[4-(2-cyclopropoxyphenyl)pyridin-3-yl]cyclopropoxy}methyl)-4-ethylphenyl]sulfanyl}-N-methyl-N-[(2S,3R,4R,5R)-2,3,4,5,6-pentahydroxyhexyl]butanamide]
16 | < 100 | CCOC(=O)NCCN(CCCCSc1ccc(Cl)c(CNC2(c3cnccc3-c3ccccc3OC3CC3)CC2)c1)C(=O)[C@@H](O)[C@@H](O)[C@H](O)[C@@H](O)CO [Compound I-572, ethyl N-{2-[(2S,3S,4R,5S)-N-[4-({4-chloro-3-[({1-[4-(2-cyclopropoxyphenyl)pyridin-3-yl]cyclopropyl}amino)methyl]phenyl}sulfanyl)butyl]-2,3,4,5,6-pentahydroxyhexanamido]ethyl}carbamate]
17 | < 100 | CCS(=O)(=O)CCN(CCCCCSc1ccc(Cl)c(COC2(c3cnccc3-c3ccccc3OC3CC3)CC2)c1)C(=O)[C@@H](O)[C@@H](O)[C@H](O)[C@@H](O)CO [Compound I-604, (2S,3S,4R,5S)-N-(5-{[4-chloro-3-({1-[4-(2-cyclopropoxyphenyl)pyridin-3-yl]cyclopropoxy}methyl)phenyl]sulfanyl}pentyl)-N-[2-(ethanesulfonyl)ethyl]-2,3,4,5,6-pentahydroxyhexanamide]
18 | 126 to 1000 | CC(=O)NCCCN(CCCCSc1ccc(Cl)c(CNC2(c3cnccc3-c3ccccc3OC3CC3)CC2)c1)C(=O)[C@@H](O)[C@@H](O)[C@H](O)[C@@H](O)CO [Compound I-573, (2S,3S,4R,5S)-N-[4-({4-chloro-3-[({1-[4-(2-cyclopropoxyphenyl)pyridin-3-yl]cyclopropyl}amino)methyl]phenyl}sulfanyl)butyl]-N-(3-acetamidopropyl)-2,3,4,5,6-pentahydroxyhexanamide]
19 | < 100 | NC(=O)CN(CCCCCSc1ccc(Cl)c(COC2(c3cnccc3-c3ccccc3OC3CC3)CC2)c1)C(=O)[C@@H](O)[C@@H](O)[C@H](O)[C@@H](O)CO [Compound I-609, (2S,3S,4R,5S)-N-(carbamoylmethyl)-N-(5-{[4-chloro-3-({1-[4-(2-cyclopropoxyphenyl)pyridin-3-yl]cyclopropoxy}methyl)phenyl]sulfanyl}pentyl)-2,3,4,5,6-pentahydroxyhexanamide]
20 | < 100 | CS(=O)(=O)NCCN(CCCSc1ccc(Cl)c(CNC2(c3cnccc3-c3ccccc3OC3CC3)CC2)c1)C(=O)[C@@H](O)[C@@H](O)[C@H](O)[C@@H](O)CO [Compound I-585, (2S,3S,4R,5S)-N-[3-({4-chloro-3-[({1-[4-(2-cyclopropoxyphenyl)pyridin-3-yl]cyclopropyl}amino)methyl]phenyl}sulfanyl)propyl]-2,3,4,5,6-pentahydroxy-N-(2-methanesulfonamidoethyl) hexanamide]
